Reference: patent publication US11414425B2 (priority 2018, dated 2022)
Where two headings read alike, the source gives them in different places.

Legend:
α5β3γ2 GABAA receptors = α5β3γ2 GABAA receptors (Homo sapiens, UniProt P18507+P31644); experiment: [3H]Ro15-1788 binding, membranes of Ltk cells stably expressing α5β3γ2 GABAA receptors
GABAA receptors (α5β2γ2) = target: T1, GABAA receptors (α5β2γ2) (Homo sapiens, UniProt P18507+P31644); experiment: Positive allosteric modulator activity: potentiation of EC20 GABA current in oocytes; format: cell-based; settings: read-out: GABA α5 Functional Data (potentiation of EC20 GABA)
T1 construct: expressed in transfected cells
Protocol: On day 1, 1 ng/32 nL of GABAA α5β2γ2 cDNA was injected into one oocyte. Test starts on day 2. The cDNA injected to the oocytes was a mix of alpha, beta and gamma, their ratio is 1:1:10 (by weight) and the total weight of the mixed 3 subunits to be injected in one oocyte was 1 ng in 32 nl volume. The injected oocytes can also be tested on day 3. In such case, the cDNA amount injected to the oocytes should be reduced by 20%.
1). 8 oocytes were placed in 8 chambers of OpusXpress and superfused with Modified Barth's Saline (MBS) at 3 mL/min. Glass electrodes back-filled with 3M KCl (0.5-3 megaohms) were used.
1). New oocytes were used to run new test.
3). […] Oocytes were washed with MBS for 5-10 min.
4). […] Itest was divided by IGABA to obtain potentiation (%).
Test Compounds at Multiple Doses • 1). Repeat the above steps 1), 2) and 3) in the control test. • 2). […] Divide Itest by IGABA to obtain potentiation (%). • 3). Discard all tested oocytes, new oocytes were used and the above steps 1) and 2) were repeated to test second concentration of the same compound. Each oocyte was used for only one concentration test for a single test compound. The steps were repeated for other test compounds.

[1] = ranges, inhibition of [3H]Ro15-1788 binding

Chain of α5β3γ2 GABAA receptors (P31644 32-462): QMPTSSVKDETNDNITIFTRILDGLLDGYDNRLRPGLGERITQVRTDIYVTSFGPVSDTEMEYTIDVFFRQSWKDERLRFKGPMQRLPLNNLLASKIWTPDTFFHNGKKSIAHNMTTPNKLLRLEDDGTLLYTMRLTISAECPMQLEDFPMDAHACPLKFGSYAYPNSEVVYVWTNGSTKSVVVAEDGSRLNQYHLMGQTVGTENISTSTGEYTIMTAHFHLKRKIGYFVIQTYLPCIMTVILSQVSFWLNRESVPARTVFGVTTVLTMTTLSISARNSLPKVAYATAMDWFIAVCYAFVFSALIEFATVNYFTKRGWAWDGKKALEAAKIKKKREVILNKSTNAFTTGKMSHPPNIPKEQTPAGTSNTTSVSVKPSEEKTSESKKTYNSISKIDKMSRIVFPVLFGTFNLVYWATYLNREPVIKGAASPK
Chain of α5β3γ2 GABAA receptors (P28472 26-473 partner): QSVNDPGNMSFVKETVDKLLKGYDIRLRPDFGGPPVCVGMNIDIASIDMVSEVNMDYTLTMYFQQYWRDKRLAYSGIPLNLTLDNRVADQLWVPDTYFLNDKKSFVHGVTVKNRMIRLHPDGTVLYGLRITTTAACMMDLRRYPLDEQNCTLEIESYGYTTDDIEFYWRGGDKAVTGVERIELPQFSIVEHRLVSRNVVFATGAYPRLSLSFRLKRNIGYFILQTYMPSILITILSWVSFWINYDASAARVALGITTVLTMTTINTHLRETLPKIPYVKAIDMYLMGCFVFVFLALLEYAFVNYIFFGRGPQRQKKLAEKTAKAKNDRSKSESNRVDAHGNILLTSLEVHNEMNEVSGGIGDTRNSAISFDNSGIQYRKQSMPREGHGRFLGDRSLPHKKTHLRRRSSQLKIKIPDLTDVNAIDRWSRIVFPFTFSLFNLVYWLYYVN
Chain of α5β3γ2 GABAA receptors (P18507 40-475): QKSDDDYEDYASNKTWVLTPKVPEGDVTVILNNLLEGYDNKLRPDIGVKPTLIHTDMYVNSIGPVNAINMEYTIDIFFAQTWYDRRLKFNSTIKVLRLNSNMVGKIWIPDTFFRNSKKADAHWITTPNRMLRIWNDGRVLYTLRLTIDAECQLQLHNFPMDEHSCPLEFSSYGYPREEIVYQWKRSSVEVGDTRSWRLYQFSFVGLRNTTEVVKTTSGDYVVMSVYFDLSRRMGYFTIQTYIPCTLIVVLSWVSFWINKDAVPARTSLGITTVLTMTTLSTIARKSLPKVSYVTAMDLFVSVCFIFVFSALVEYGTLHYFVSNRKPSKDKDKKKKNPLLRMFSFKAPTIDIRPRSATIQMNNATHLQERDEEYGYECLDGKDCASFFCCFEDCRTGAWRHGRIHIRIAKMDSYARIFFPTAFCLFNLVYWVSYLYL
T1 sequence (P31644 32-462): as the sequence (P31644 32-462) above
T1 sequence (P47870 25-512, further chain): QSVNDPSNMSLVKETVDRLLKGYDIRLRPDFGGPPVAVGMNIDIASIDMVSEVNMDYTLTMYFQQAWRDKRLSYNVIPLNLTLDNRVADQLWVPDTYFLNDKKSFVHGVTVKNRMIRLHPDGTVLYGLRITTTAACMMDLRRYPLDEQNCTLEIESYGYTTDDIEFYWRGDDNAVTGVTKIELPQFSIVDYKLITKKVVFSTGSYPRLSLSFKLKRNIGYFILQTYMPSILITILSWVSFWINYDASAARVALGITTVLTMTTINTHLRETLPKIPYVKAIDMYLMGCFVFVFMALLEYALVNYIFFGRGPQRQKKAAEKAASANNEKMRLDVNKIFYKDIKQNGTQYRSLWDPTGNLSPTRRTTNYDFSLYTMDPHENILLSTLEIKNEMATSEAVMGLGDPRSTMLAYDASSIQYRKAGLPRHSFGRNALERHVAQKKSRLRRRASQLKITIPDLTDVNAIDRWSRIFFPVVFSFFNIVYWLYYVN
T1 sequence (P18507 40-475): as the sequence (P18507 40-475) above

Row | Compound | Ki (α5β3γ2 GABAA receptors; [1]) [nM] | activation at 0.1 µM (GABAA receptors (α5β2γ2); @ 100 nM, ranges) [%] | Ki (α5β3γ2 GABAA receptors) [nM] | activation at 0.1 µM (GABAA receptors (α5β2γ2)) [%]
1 | COCc1nnc2n1Cc1c(C#Cc3cnc(OC)c(C)c3)ncn1-c1ccc(Cl)cc1-2 [Compound 698] | < 100 | 5 to 20 |  | 
2 | COCc1nnc2n1Cc1c(C#Cc3cncc(OC)c3)ncn1-c1ccc(OC)cc1-2 [Compound 566] | < 100 | 5 to 20 |  | 
3 | COCc1nnc2n1Cc1c(C#Cc3cncc(OC)c3)ncn1-c1ccc(Cl)cc1-2 [Compound 559] | < 100 | 5 to 20 |  | 
4 | CC(C)c1noc(-c2ncn3c2Cc2c(Cc4cccc(F)c4)nnn2-c2cc(Cl)ccc2-3)n1 [Compound 481] | < 100 | 5 to 20 |  | 
5 | COCc1nnc2n1Cc1c(C#Cc3ccn4ccnc4c3)ncn1-c1ccc(OC)cc1-2 [Compound 675] | < 100 | > 50 |  | 
6 | Fc1ccc(C#Cc2ncn3c2Cc2cnnn2-c2cc(C(F)(F)F)ccc2-3)cc1 [Compound 501] | < 100 | 20 to 50 |  | 
7 | COc1ccc(C#Cc2ncn3c2Cc2cnnn2-c2cc(C(F)(F)F)ccc2-3)cn1 [Compound 553] | < 100 | 5 to 20 |  | 
8 | COCc1nnc2n1Cc1c(C3=NC[C@H](c4ccc(Cl)cc4)O3)ncn1-c1ccc(Cl)cc1-2 [Compound 718] | < 100 | 20 to 50 |  | 
9 | Cc1nc(-c2ncn3c2Cc2c(Cc4ccc(F)cc4)nnn2-c2cc(C(F)(F)F)ccc2-3)no1 [Compound 493] | < 100 | 5 to 20 |  | 
10 | Cc1nc(-c2ncn3c2Cc2cnnn2-c2cc(Cl)ccc2-3)no1 [Compound 539] | < 100 | 5 to 20 |  | 
11 | Cc1cncc(C#Cc2ncn3c2Cc2cnnn2-c2cc(Cl)ccc2-3)c1 [Compound 618] | < 100 | 20 to 50 |  | 
12 | COc1ccc2c(c1)-n1nncc1Cc1c(C#Cc3c[nH]nc3OC)ncn1-2 [Compound 663] | < 100 | 20 to 50 |  | 
13 | COCc1nnn2c1Cc1c(C#Cc3cncc(C)c3)ncn1-c1ccc(Cl)cc1-2 [Compound 639] | < 100 | 20 to 50 |  | 
14 | COCc1nnc2n1Cc1c(C#Cc3ccc(=O)n(C)c3)ncn1-c1ccc(OC)cc1-2 [Compound 676] | < 100 | 5 to 20 |  | 
15 | Cc1noc(-c2ncn3c2Cc2c(Cc4cccc(F)c4)nnn2-c2cc(OC(F)F)ccc2-3)n1 [Compound 491] | < 100 | 20 to 50 |  | 
16 | COCc1nnc2n1Cc1c(C#Cc3cccnc3OC)ncn1-c1ccc(OC)cc1-2 [Compound 615] | < 100 | 20 to 50 |  | 
17 | COCc1nnc2n1Cc1c(C#Cc3ccc(OC)cc3)ncn1-c1ccc(Cl)cc1-2 [Compound 526] | < 100 | 5 to 20 |  | 
18 | COCc1nnc2n1Cc1c(C#Cc3ccc(OC)nc3)ncn1-c1ccc(OC)cc1-2 [Compound 703] | < 100 | 20 to 50 |  | 
19 | COCc1nnc2n1Cc1c(C3=NC(C)CO3)ncn1-c1ccc(Cl)cc1-2 (stereo not shown) [Compound 243] | < 100 | 20 to 50 |  | 
20 | Cc1noc(-c2ncn3c2Cc2c(Cc4cccc(F)c4)nnn2-c2cc(OC(F)(F)F)ccc2-3)n1 [Compound 485] | < 100 | 5 to 20 |  | 
21 | COc1ccc2c(c1)-n1nncc1Cc1c(C3=NCC(c4ncccc4OC)O3)ncn1-2 (stereo not shown) [Compound 632] | < 100 | 5 to 20 |  | 
22 | COCc1nnc2n1Cc1c(C#Cc3ccnc(OC)c3)ncn1-c1ccc(Cl)cc1-2 [Compound 570] | < 100 | 5 to 20 |  | 
23 | COCc1nnc2n1Cc1c(C#Cc3ccc(C)nc3)ncn1-c1ccc(OC)cc1-2 [Compound 561] | < 100 | 20 to 50 |  | 
24 | COCc1nnc2n1Cc1c(C3=NC[C@@H](c4ccc(Cl)cc4)O3)ncn1-c1ccc(Cl)cc1-2 [Compound 717] | < 100 | > 50 |  | 
25 | COc1ccc2c(c1)-n1nncc1Cc1c(C#Cc3cnc(C)n3C)ncn1-2 [Compound 667] | < 100 | > 50 |  | 

Row | Compound | Ki (α5β3γ2 GABAA receptors; [1]) [nM] | activation at 0.1 µM (GABAA receptors (α5β2γ2); @ 100 nM, ranges) [%] | Ki (α5β3γ2 GABAA receptors) [nM] | activation at 0.1 µM (GABAA receptors (α5β2γ2)) [%]
26 | Clc1ccc2c(c1)-n1nncc1Cc1c(COCc3ccccc3)ncn1-2 [Compound 544] | < 100 | 5 to 20 |  | 
27 | COCc1nnn2c1Cc1c(C3=NC[C@H](c4ccc(Cl)cc4)O3)ncn1-c1ccc(OC)cc1-2 [Compound 636] | < 100 | 5 to 20 |  | 
28 | COc1ccc2c(c1)-n1nncc1Cc1c(C3=NC[C@H](c4ccccc4)O3)ncn1-2 [Compound 511] | < 100 | 5 to 20 |  | 
29 | COCc1nnc2n1Cc1c(C#Cc3ccc(=O)n(C)c3)ncn1-c1ccc(Cl)cc1-2 [Compound 677] | < 100 | 5 to 20 |  | 
30 | COCc1nnc2n1Cc1c(C#Cc3ncc(C)s3)ncn1-c1ccc(Cl)cc1-2 [Compound 607] | < 100 | 20 to 50 |  | 
31 | Cc1nnc(-c2ncn3c2Cc2cnnn2-c2cc(Cl)ccc2-3)s1 [Compound 509] |  |  | < 100 | 20 to 50
32 | CC(C)(C)C#Cc1ncn2c1Cc1cnnn1-c1cc(Cl)ccc1-2 [Compound 534] | < 100 | 5 to 20 |  | 
33 | COc1cccc(C2CN=C(c3ncn4c3Cc3cnnn3-c3cc(Cl)ccc3-4)O2)n1 (stereo not shown) [Compound 631] | < 100 | 5 to 20 |  | 
34 | C#Cc1ccc2c(c1)-c1nnc(COC)n1Cc1c(C3=N[C@@H](c4ccccc4)CO3)ncn1-2 [Compound 301] | < 100 | 5 to 20 |  | 
35 | COCc1nnc2n1Cc1c(C#Cc3cnc(C)s3)ncn1-c1ccc(Cl)cc1-2 [Compound 608] | < 100 | 20 to 50 |  | 
36 | COCc1nnc2n1Cc1c(C#Cc3cnc(C)cn3)ncn1-c1ccc(Cl)cc1-2 [Compound 582] | < 100 | > 50 |  | 
37 | COc1ccc2c(c1)-n1nncc1Cc1c(C3=NC[C@@H](c4ccccc4)O3)ncn1-2 [Compound 512] | < 100 | 5 to 20 |  | 
38 | COc1ccc2c(c1)-n1nncc1Cc1c(C#CC(C)(C)C)ncn1-2 [Compound 535] | < 100 | 5 to 20 |  | 
39 | CCOC(=O)c1ncn2c1Cc1c(Cc3cccnc3)nnn1-c1cc(C)ccc1-2 [Compound 111] | < 100 | 20 to 50 |  | 
40 | COCc1nnc2n1Cc1c(C#Cc3ccc(C)cn3)ncn1-c1ccc(OC)cc1-2 [Compound 562] | < 100 | 20 to 50 |  | 
41 | Cc1noc(-c2ncn3c2Cc2cnnn2-c2cc(Br)ccc2-3)n1 [Compound 473] | < 100 | 5 to 20 |  | 
42 | Cc1noc(-c2ncn3c2Cc2c(Cc4ccc(F)cc4)nnn2-c2cc(OC(F)F)ccc2-3)n1 [Compound 492] | < 100 | 20 to 50 |  | 
43 | COCc1nnc2n1Cc1c(C#Cc3cnc4occc4c3)ncn1-c1ccc(OC)cc1-2 [Compound 674] | < 100 | 5 to 20 |  | 
44 | COCc1nnc2n1Cc1c(C#Cc3ccc(OC)cn3)ncn1-c1ccc(Cl)cc1-2 [Compound 528] | < 100 | > 50 |  | 
45 | CCOc1ccc(C#Cc2ncn3c2Cn2c(COC)nnc2-c2cc(OC)ccc2-3)cn1 [Compound 710] | < 100 | 5 to 20 |  | 
46 | CC(C)(C)c1nc(-c2ncn3c2Cc2cnnn2-c2cc(Cl)ccc2-3)no1 [Compound 536] | < 100 | 20 to 50 |  | 
47 | COc1ccc(C#Cc2ncn3c2Cc2cnnn2-c2cc(OC(F)F)ccc2-3)cc1 [Compound 498] | < 100 | 5 to 20 |  | 
48 | FC(F)(F)c1ccc2c(c1)-n1nncc1Cc1c(-c3ncco3)ncn1-2 [Compound 475] | < 100 | 5 to 20 |  | 
49 | Fc1ccc([C@@H]2COC(c3ncn4c3Cc3cnnn3-c3cc(Cl)ccc3-4)=N2)cc1 [Compound 522] | < 100 | 5 to 20 |  | 
50 | COCc1nnc2n1Cc1c(C#Cc3cccc(C)n3)ncn1-c1ccc(Cl)cc1-2 [Compound 596] | < 100 | > 50 |  | 
